In article PMC10687119, “Quaternary Ammonium Salts of Cationic Lipopeptides with Lysine Residues — Synthesis, Antimicrobial, Hemolytic and Cytotoxic Activities” (Probiotics and Antimicrobial Proteins, 2023):
Values after ≈ are worked out from the molar mass of the structure shown. Read-outs that look alike come from different tables or passages of the source. Where a SMILES comes first, the peptide text is derived from it. The star is where a group is joined. Stearoyl = CCCCCCCCCCCCCCCCCC(=O)*; Palmitoyl = CCCCCCCCCCCCCCCC(=O)*

How the values were obtained:
[1] = tested on: S. aureus ATCC 33591; format: cell-based, Staphylococcus aureus
Description: (§1) The Acinetobacter baumannii ATCC BAA-1605, Enterococcus faecium ATCC 700221, Klebsiella aerogenes ATCC 13048, Klebsiella pneumoniae ATCC 700603, Pseudomonas aeruginosa ATCC 9027, Staphylococcus aureus ATCC 33591, Candida glabrata ATCC 15126 strains were acquired from the American Type Culture Collection (ATCC, Manassas, USA). All the strains were stored at −80 °C in Roti-Store cryo vials (Carl Roth GmbH, Germany) and before the tests were transferred into fresh Mueller–Hinton broth (MHB, Becton Dickinson, Poland) for bacteria or RPMI-1640 (Sigma-Aldrich, Germany) for fungi and incubated for 24 h at 37 °C. Then, the cultures were cultured on the Mueller–Hinton agar (BioMaxima, Poland) or Sabouraud dextrose agar (SDA, BioMaxima) plates, respectively, and incubated as just mentioned. For microbiological assays, a minimum of three to five well-isolated colonies of the same morphological type were carefully picked from the agar cultures. These colonies were transferred with sterile loop into fresh microbiological medium and incubated with shaking (100 rpm) at 37 °C until they reached logarithmic phase of growth. Cell densities for all assays were adjusted through spectrophotometric measurements (Multiskan GO Microplate Spectrophotometer, Thermo Fisher Scientific, Finland) at 600 and 530 nm for bacteria and fungi, respectively.
(§2) The MICs were determined by broth microdilution method according to the Clinical and Laboratory Standard Institute guidelines. For this purpose, initial inoculums of bacteria (5 × 10^5 CFU/mL) in MHB and yeasts (2 × 10^3 CFU/mL) in RPMI-1640 with 2% D-glucose were exposed to the ranging concentration of lipopeptides (1–512 μg/mL) and incubated at 37 °C for 18 h and 24 h, respectively. The experiments were conducted on 96-well microtiter polystyrene plates (Kartell, Italy). The growth was assessed visually after incubation and the MIC was assumed as the lowest peptide concentration at which a noticeable growth of microorganisms was inhibited. Benzalkonium chloride (Sigma-Aldrich, Germany) was used as reference compound. All experiments were conducted in triplicate.

[2] = tested on: K. aerogenes ATCC 13048; format: cell-based, Klebsiella aerogenes
Description: as §1, §2

[3] = tested on: human keratinocyte cell line (HaCaT); format: cell-based; conditions: 24 h
Description: The immortalized human keratinocyte cell line (HaCaT), obtained from CLS (Cell Line Service, Germany) was cultured in DMEM-high glucose (Dulbecco’s Modified Eagle Medium) supplemented with 10% fetal bovine serum, 2 mM L-glutamine, 100 U/mL penicillin and 100 μg/mL streptomycin (Sigma-Aldrich; Merck KGaA) at 37 °C in a humidified atmosphere with 5% CO2. Cells were trypsinized, and the medium was renewed 2–3 times per week. The cytotoxicity of compounds was assessed by colorimetric CellTilter 96® Aqueous One Solution Cell Proliferation Assay (Promega, USA), containing a tetrazolium compound according to the manufacturer’s instructions. In brief, 7 × 10^3 HaCaT cells per well were plated on 96-well plates and incubated per night to adhere to the cultured dishes. After that time, different concentrations of the tested compounds ranging from 512 to 1 μg/mL were applied to the wells. Every compound was medium-soluble at 37 °C; thus, the non-treated cells were negative control. Serial dilutions of the tested compounds were always prepared before use. Cells were incubated with drugs for 24 h, and then, 20 μL of the CellTiter 96®AqueousOne Solution Reagent was added to each well containing treated cells in 100 µl of culture medium. After 4 h of incubation at 37 °C, the absorbance at 490 nm was recorded using a microplate reader (Epoch, BioTek Instruments, USA). The quantity of formazan product as measured by the amount of 490 nm absorbance is directly proportional to the number of living cells in culture. Benzalkonium chloride (Sigma-Aldrich, Germany) was used as reference compound. At least three independent experiments with two replicates were conducted for each concentration of a compound, and the IC50 values were calculated using GraphPad Prism 8 software.

[4] = tested on: K. pneumoniae ATCC 700603; format: cell-based, Klebsiella pneumoniae
Description: as §1, §2

[5] = tested on: A. baumannii ATCC BAA 1605; format: cell-based, Acinetobacter baumannii
Description: as §1, §2

[6] = tested on: P. aeruginosa ATCC 9027; format: cell-based, Pseudomonas aeruginosa
Description: as §1, §2

[7] = tested on: C. glabrata ATCC 15126; format: cell-based, Candida glabrata
Description: as §1, §2

[8] = tested on: human red blood cells (RBCs); format: cell-based; conditions: red cells of human
Description: The hemolysis assay was conducted using a procedure described previously. For this purpose, human red blood cells (RBCs) isolated from K2EDTA Single Donor Human Whole blood (Innovative Research, Inc, MI, USA) were rinsed with Phosphate-buffer saline (PBS, pH 7.4±0.05, composition - KCl 2.7 mM, NaCl 140 mM, phosphate 10mM; AppliChem GmbH, Germany) by centrifugation for 10 min at 800 × g. This process was repeated 3 times and the RBCs were resuspended in PBS. Then, the stock solution of RBCs was added to the serial dilution of lipopeptides on 96-well polystyrene plates to reach a final volume of 100 μL with a 4% concentration of erythrocytes (v/v) and a concentration range of 1-512 μg/mL of tested compounds. The control wells for 0% and 100% hemolysis consisted of RBCs suspended in PBS and 1% of Triton X-100 (Sigma-Aldrich, Germany), respectively. Benzalkonium chloride (Sigma-Aldrich, Germany) was used as reference compound. Subsequently, the plates were incubated for 60 min at 37 °C and then centrifuged at 800 × g for 10 min at 4 °C (Sorvall ST […] Centrifuge, Thermo Scientific). The supernatant was carefully […] to new microtiter plates. The release of hemoglobin was monitored absorbance measurements at 540 nm (MultiskanTM GO Microplate Spectrophotometer, Thermo Scientific). All experiments were conducted in triplicate. HC50 was calculated using an ic50.tk tool.

[9] = tested on: E. faecium ATCC 700221; format: cell-based, Enterococcus faecium
Description: as §1, §2

[10] = S. aureus ATCC 33591, 18 h, 37 °C
[11] = C. glabrata ATCC 15126, 24 h, 37 °C

Molecule	MIC ([1]; ATCC 33591, 18 h) [µg/mL]	MIC ([2]; ATCC 13048, 18 h) [µg/mL]	IC50 [3] [µg/mL]	MIC ([4]; ATCC 700603, 18 h) [µg/mL]	MIC ([5]; ATCC BAA 1605, 18 h) [µg/mL]	MIC ([6]; ATCC 9027, 18 h) [µg/mL]	MIC ([7]; ATCC 15126, 24 h) [µg/mL]	HC50 [8] [µg/mL]	MIC ([9]; ATCC 700221, 18 h) [µg/mL]	MIC [1, 10] [µg/mL]	MIC ([2]; K. aerogenes ATCC 13048, 18 h, 37 °C) [µg/mL]	IC50 ([3]; HaCaT) [µg/mL]	MIC ([4]; K. pneumoniae ATCC 700603, 18 h, 37 °C) [µg/mL]	MIC ([5]; A. baumannii ATCC BAA 1605, 18 h, 37 °C) [µg/mL]	MIC ([6]; P. aeruginosa ATCC 9027, 18 h, 37 °C) [µg/mL]	MIC [7, 11] [µg/mL]	MIC ([9]; E. faecium ATCC 700221, 18 h, 37 °C) [µg/mL]
CCCCCCCCCCCCCCCCCC(=O)N[C@@H](CCCC[N+](C)(C)C)C(=O)N[C@@H](CCCC[N+](C)(C)C)C(N)=O [Peptide 2Sq, C18-K(Me3)^+K(Me3)^+-NH2]	8	64	78.57 ± 5.49	128	64	>512	16	22.42 ± 0.98	16								
CCCCCCCCCCCCCC(=O)N[C@@H](CCCC[N+](C)(C)C)C(=O)N[C@@H](CCCC[N+](C)(C)C)C(N)=O [Peptide 2Mq, C14-K(Me3)^+K(Me3)^+-NH2]	128	>512	258.90 ± 35.07	>512	>512	>512	512	>512	128								
CCCCCCCCCCCCCCCCCC(=O)N[C@@H](CCCCN)C(=O)N[C@@H](CCCCN)C(=O)N[C@@H](CCCCN)C(=O)N[C@@H](CCCCN)C(N)=O [Peptide 4S, C18-KKKK-NH2] (Stearoyl-KKKK-NH2)		4 (≈ 5.02 µM)	155.34 ± 11.20 (≈ 195 µM)	8 (≈ 10 µM)	16 (≈ 20.1 µM)	8 (≈ 10 µM)	16 (≈ 20.1 µM)	48.44 ± 4.12	4 (≈ 5.02 µM)								
CCCCCCCCCCCCCCCC(=O)N[C@@H](CCCC[N+](C)(C)C)C(N)=O [Peptide 1Pq, C16-K(Me3)^+-NH2]	16	256	19.25 ± 9.34	512	64	>512	8	32.21 ± 1.97	16								
CCCCCCCCCCCCCCCCCC(=O)N[C@@H](CCCCN)C(N)=O [Peptide 1S, C18-K-NH2]		>512	8.34 ± 1.07 (≈ 20.3 µM)	>512	>512	>512		>512		> 512							
benzalkonium chloride [BAC, reference compound]										4	16	11.70 ± 0.76	16	16	32	4	4
CCCCCCCCCCCCCCCC(=O)N[C@@H](CCCCN)C(=O)N[C@@H](CCCCN)C(=O)N[C@@H](CCCCN)C(N)=O [Peptide 3P, C16-KKK-NH2]		8 (≈ 12.5 µM)	45.40 ± 20.45 (≈ 70.9 µM)	32 (≈ 50 µM)	64 (≈ 100 µM)	32 (≈ 50 µM)	64 (≈ 100 µM)	135.46 ± 8.69	8 (≈ 12.5 µM)								
CCCCCCCCCCCCCCCCCC(=O)N[C@@H](CCCC[N+](C)(C)C)C(N)=O [Peptide 1Sq, C18-K(Me3)^+-NH2]		>512	14.13 ± 0.39	>512	>512	>512	4 to 8	16.13 ± 9.88								4	
CCCCCCCCCCCCCCCC(=O)N[C@@H](CCCCN)C(N)=O [Peptide 1P, C16-K-NH2]	>512	>512	1.74 ± 0.49 (≈ 4.54 µM)	>512		>512	>512	>512	4 (≈ 10.4 µM)								
CCCCCCCCCCCCCCCCCC(=O)N[C@@H](CCCCN)C(=O)N[C@@H](CCCCN)C(N)=O [Peptide 2S, C18-KK-NH2]		32 (≈ 59.3 µM)	4.33 ± 0.79 (≈ 8.02 µM)	64 (≈ 119 µM)	32 (≈ 59.3 µM)	128 (≈ 237 µM)	8 (≈ 14.8 µM)	21.88 ± 0.68	4 (≈ 7.41 µM)								
CCCCCCCCCCCCCCCCCC(=O)N[C@@H](CCCCN)C(=O)N[C@@H](CCCCN)C(=O)N[C@@H](CCCCN)C(N)=O [Peptide 3S, C18-KKK-NH2]		4 (≈ 5.99 µM)	88.51 ± 4.72 (≈ 132 µM)	8 (≈ 12 µM)	32 (≈ 47.9 µM)	16 (≈ 24 µM)	8 (≈ 12 µM)	32.11 ± 1.54	4 (≈ 5.99 µM)								
CCCCCCCCCCCCCCCC(=O)N[C@@H](CCCCN)C(=O)N[C@@H](CCCCN)C(N)=O [Peptide 2P, C16-KK-NH2]		32 (≈ 62.5 µM)	10.27 ± 1.59 (≈ 20.1 µM)	128 (≈ 250 µM)	64 (≈ 125 µM)	16 (≈ 31.3 µM)	16 (≈ 31.3 µM)	55.21 ± 1.69	8 (≈ 15.6 µM)								
CCCCCCCCCCCCCCCC(=O)N[C@@H](CCCCN)C(=O)N[C@@H](CCCCN)C(=O)N[C@@H](CCCCN)C(=O)N[C@@H](CCCCN)C(N)=O [Peptide 4P, C16-KKKK-NH2] (Palmitoyl-KKKK-NH2)		8 (≈ 10.4 µM)	126.80 ± 27.26 (≈ 165 µM)	32 (≈ 41.7 µM)	64 (≈ 83.3 µM)	32 (≈ 41.7 µM)	64 (≈ 83.3 µM)	>512	4 (≈ 5.21 µM)								
